PubChem BioAssay AID2060513 (Molecular Pharmacology Branch, DTP, NCI, 2025)

System: 299254-011-R-J1-PDC complex spheroids viability
Experiment: Anticancer human tumor 299254-011-R-J1-PDC patient-derived melanoma cell line growth inhibition [GQUAD]
Settings: for IC50: curve of first compound; for viability, T/C: stronger effect = lower value; active = viability on the fitted dose curve at most 10% of control; inactive = the rest
In short: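 Viability of tumor cells grown as complex spheroids with endothelial and stromal cells, exposed to drug combinations. Top concentration at or near clinical Cmax (else 10 microM), diluted in half-log increments.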

[1] = second compound 0.0316 µM, first compound 0.0316 µM
[2] = second compound 0.0316 µM, first compound 0.316 µM
[3] = second compound 0.1 µM, first compound 0.0316 µM
[4] = second compound 0.1 µM, first compound 0.316 µM
[5] = second compound 0.316 µM, first compound 0.0316 µM
[6] = second compound 0.316 µM, first compound 0.316 µM
[7] = second compound 1 µM, first compound 0.0316 µM
[8] = second compound 1 µM, first compound 0.316 µM
[9] = second compound 3.16 µM, first compound 0.0316 µM
[10] = second compound 3.16 µM, first compound 0.316 µM
[11] = second compound 10 µM, first compound 0.0316 µM
[12] = second compound 10 µM, first compound 0.316 µM
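Note: spheroids exposed to the agents for seven days before readout.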
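Throughout, for viability, T/C: percent viability relative to DMSO vehicle control wells = 100%.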

C=CC(=O)N1CCN(c2nc(=O)n(-c3c(C)ccnc3C(C)C)c3nc(-c4c(O)cccc4F)c(F)cc23)C(C)C1 (centres undefined) + CN(C)c1ccc(Nc2c3ccc(NC(=O)CCN4CCCC4)cc3nc3cc(NC(=O)CCN4CCCC4)ccc23)cc1
inactive: viability, T/C [1] 93.8% | viability, T/C (second compound 0.0316 µM, first compound 0.1 µM) 68.9% | viability, T/C [2] 73.1% | viability, T/C (second compound 0.0316 µM, first compound 1 µM) 56.3% | viability, T/C (second compound 0.0316 µM, first compound 3.16 µM) 64.4% | viability, T/C (second compound 0.0316 µM, first compound 10 µM) 66.6% | viability, T/C [3] 79.4% | viability, T/C (second compound 0.1 µM, first compound 0.1 µM) 80.2% | viability, T/C [4] 57% | viability, T/C (second compound 0.1 µM, first compound 1 µM) 60.4% | viability, T/C (second compound 0.1 µM, first compound 3.16 µM) 74.7% | viability, T/C (second compound 0.1 µM, first compound 10 µM) 74.3% | viability, T/C [5] 76.2% | viability, T/C (second compound 0.316 µM, first compound 0.1 µM) 81.3% | viability, T/C [6] 62.3% | viability, T/C (second compound 0.316 µM, first compound 1 µM) 68.2% | viability, T/C (second compound 0.316 µM, first compound 3.16 µM) 67.3% | viability, T/C (second compound 0.316 µM, first compound 10 µM) 65.4% | viability, T/C [7] 81.1% | viability, T/C (second compound 1 µM, first compound 0.1 µM) 74% | viability, T/C [8] 71.8% | viability, T/C (second compound 1 µM, first compound 1 µM) 67.4% | viability, T/C (second compound 1 µM, first compound 3.16 µM) 80% | viability, T/C (second compound 1 µM, first compound 10 µM) 65% | viability, T/C [9] 71.2% | viability, T/C (second compound 3.16 µM, first compound 0.1 µM) 83.3% | viability, T/C [10] 75.8% | viability, T/C (second compound 3.16 µM, first compound 1 µM) 60.4% | viability, T/C (second compound 3.16 µM, first compound 3.16 µM) 73% | viability, T/C (second compound 3.16 µM, first compound 10 µM) 79.1% | viability, T/C [11] 74.4% | viability, T/C (second compound 10 µM, first compound 0.1 µM) 74.8% | viability, T/C [12] 74.7% | viability, T/C (second compound 10 µM, first compound 1 µM) 68.2% | viability, T/C (second compound 10 µM, first compound 3.16 µM) 69.7% | viability, T/C (second compound 10 µM, first compound 10 µM) 76.8%
> 10 µM: IC50 (second compound 0.0316 µM) | IC50 (second compound 0.1 µM) | IC50 (second compound 0.316 µM) | IC50 (second compound 1 µM) | IC50 (second compound 3.16 µM) | IC50 (second compound 10 µM)

CC[C@@]1(O)C(=O)OCc2c1cc1n(c2=O)Cc2cc3c(CN(C)C)c(O)ccc3nc2-1 + CN(C)c1ccc(Nc2c3ccc(NC(=O)CCN4CCCC4)cc3nc3cc(NC(=O)CCN4CCCC4)ccc23)cc1
inactive: viability, T/C (second compound 0.0316 µM, first compound 0.000999 µM) 99.2% | viability, T/C (second compound 0.0316 µM, first compound 0.00316 µM) 105% | viability, T/C (second compound 0.0316 µM, first compound 0.00999 µM) 126% | viability, T/C [1] 107% | viability, T/C (second compound 0.0316 µM, first compound 0.0999 µM) 112% | viability, T/C [2] 90.4% | viability, T/C (second compound 0.1 µM, first compound 0.000999 µM) 120% | viability, T/C (second compound 0.1 µM, first compound 0.00316 µM) 93.2% | viability, T/C (second compound 0.1 µM, first compound 0.00999 µM) 98.7% | viability, T/C [3] 101% | viability, T/C (second compound 0.1 µM, first compound 0.0999 µM) 84.5% | viability, T/C [4] 90.1% | viability, T/C (second compound 0.316 µM, first compound 0.000999 µM) 108% | viability, T/C (second compound 0.316 µM, first compound 0.00316 µM) 120% | viability, T/C (second compound 0.316 µM, first compound 0.00999 µM) 108% | viability, T/C [5] 90.1% | viability, T/C (second compound 0.316 µM, first compound 0.0999 µM) 85.8% | viability, T/C [6] 101% | viability, T/C (second compound 1 µM, first compound 0.000999 µM) 106% | viability, T/C (second compound 1 µM, first compound 0.00316 µM) 105% | viability, T/C (second compound 1 µM, first compound 0.00999 µM) 115% | viability, T/C [7] 114% | viability, T/C (second compound 1 µM, first compound 0.0999 µM) 97.6% | viability, T/C [8] 81.8% | viability, T/C (second compound 3.16 µM, first compound 0.000999 µM) 103% | viability, T/C (second compound 3.16 µM, first compound 0.00316 µM) 97% | viability, T/C (second compound 3.16 µM, first compound 0.00999 µM) 122% | viability, T/C [9] 125% | viability, T/C (second compound 3.16 µM, first compound 0.0999 µM) 124% | viability, T/C [10] 95.9% | viability, T/C (second compound 10 µM, first compound 0.000999 µM) 112% | viability, T/C (second compound 10 µM, first compound 0.00316 µM) 89.3% | viability, T/C (second compound 10 µM, first compound 0.00999 µM) 110% | viability, T/C [11] 97.1% | viability, T/C (second compound 10 µM, first compound 0.0999 µM) 91.6% | viability, T/C [12] 90.1%
> 0.316 µM: IC50 (second compound 0.0316 µM) | IC50 (second compound 0.1 µM) | IC50 (second compound 0.316 µM) | IC50 (second compound 1 µM) | IC50 (second compound 3.16 µM) | IC50 (second compound 10 µM)
